In experiment [1] the target is T1, Polyunsaturated fatty acid 5-lipoxygenase (Homo sapiens, UniProt P09917).
T1 sequence (P09917 whole entry): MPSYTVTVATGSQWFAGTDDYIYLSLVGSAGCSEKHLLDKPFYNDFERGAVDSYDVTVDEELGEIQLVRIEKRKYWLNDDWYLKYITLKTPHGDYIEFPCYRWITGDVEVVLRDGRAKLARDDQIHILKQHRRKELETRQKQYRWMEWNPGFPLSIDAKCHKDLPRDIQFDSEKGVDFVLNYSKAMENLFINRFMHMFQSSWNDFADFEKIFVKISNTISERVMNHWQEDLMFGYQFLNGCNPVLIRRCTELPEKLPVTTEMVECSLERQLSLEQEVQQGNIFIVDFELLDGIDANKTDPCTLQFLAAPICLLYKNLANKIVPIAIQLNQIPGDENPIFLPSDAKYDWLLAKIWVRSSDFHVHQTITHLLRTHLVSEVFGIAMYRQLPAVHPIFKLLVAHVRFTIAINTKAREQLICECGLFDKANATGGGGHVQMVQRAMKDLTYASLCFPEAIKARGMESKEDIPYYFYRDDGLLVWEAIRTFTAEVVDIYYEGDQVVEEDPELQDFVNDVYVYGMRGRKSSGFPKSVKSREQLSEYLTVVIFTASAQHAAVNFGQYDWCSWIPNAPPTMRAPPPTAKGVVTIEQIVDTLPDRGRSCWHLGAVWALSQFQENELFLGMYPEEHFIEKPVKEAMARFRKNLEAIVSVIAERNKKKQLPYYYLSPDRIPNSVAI

The test system of experiment [2] is MCF7. In words: Growth inhibition of human MCF7 cells at 10 uM after 72 hrs by MTT assay. In kind it is functional. As to conditions: MCF7, 72 h, read-out: GI.
Experiment [3] relates to PC-3. In words: Growth inhibition of human PC3 cells at 10 uM after 72 hrs by MTT assay. As to conditions: PC-3, 72 h, read-out: GI. Type of experiment: functional.
In experiment [4] the target is T2, Prostaglandin G/H synthase 1 (Homo sapiens, UniProt P23219). In words: Inhibition of COX1 in human whole blood assessed as inhibition of 12-hydroxyheptadecatrienoic acid production at 10 uM by HPLC method. In kind it is tissue-based.
T2 sequence (P23219 whole entry): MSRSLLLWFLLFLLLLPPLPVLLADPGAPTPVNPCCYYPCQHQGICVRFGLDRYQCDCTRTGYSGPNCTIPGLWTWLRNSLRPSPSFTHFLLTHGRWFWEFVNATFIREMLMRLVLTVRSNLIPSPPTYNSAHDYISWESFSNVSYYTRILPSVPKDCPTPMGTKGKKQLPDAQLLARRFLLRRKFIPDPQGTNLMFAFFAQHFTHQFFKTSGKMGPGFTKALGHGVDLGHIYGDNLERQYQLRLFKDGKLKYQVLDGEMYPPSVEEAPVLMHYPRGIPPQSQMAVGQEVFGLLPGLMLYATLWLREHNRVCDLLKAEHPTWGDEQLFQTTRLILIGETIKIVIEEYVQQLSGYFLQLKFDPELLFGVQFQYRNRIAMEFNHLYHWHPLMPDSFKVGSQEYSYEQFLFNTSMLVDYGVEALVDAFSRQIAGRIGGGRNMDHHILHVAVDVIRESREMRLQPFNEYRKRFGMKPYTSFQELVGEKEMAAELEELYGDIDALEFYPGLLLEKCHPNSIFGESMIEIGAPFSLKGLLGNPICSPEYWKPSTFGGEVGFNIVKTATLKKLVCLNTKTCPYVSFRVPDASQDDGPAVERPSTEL
Experiment [5] deals with L1210. In words: Growth inhibition of mouse L1210 cells at 10 uM after 72 hrs by MTT assay. In kind it is functional. Conditions: L1210, 72 h, read-out: GI.
The target of experiment [6] is T1, Polyunsaturated fatty acid 5-lipoxygenase. This is another data set of the same source.
In experiment [7] the target is T2, Prostaglandin G/H synthase 1. In kind it is tissue-based, Blood.
Description: Inhibition of COX1 in human whole blood assessed as inhibition of 12-hydroxyheptadecatrienoic acid production by HPLC method
Experiment [8] concerns the target T3, Prostaglandin G/H synthase 2 (Homo sapiens) (UniProt P35354).
T3 sequence (whole entry): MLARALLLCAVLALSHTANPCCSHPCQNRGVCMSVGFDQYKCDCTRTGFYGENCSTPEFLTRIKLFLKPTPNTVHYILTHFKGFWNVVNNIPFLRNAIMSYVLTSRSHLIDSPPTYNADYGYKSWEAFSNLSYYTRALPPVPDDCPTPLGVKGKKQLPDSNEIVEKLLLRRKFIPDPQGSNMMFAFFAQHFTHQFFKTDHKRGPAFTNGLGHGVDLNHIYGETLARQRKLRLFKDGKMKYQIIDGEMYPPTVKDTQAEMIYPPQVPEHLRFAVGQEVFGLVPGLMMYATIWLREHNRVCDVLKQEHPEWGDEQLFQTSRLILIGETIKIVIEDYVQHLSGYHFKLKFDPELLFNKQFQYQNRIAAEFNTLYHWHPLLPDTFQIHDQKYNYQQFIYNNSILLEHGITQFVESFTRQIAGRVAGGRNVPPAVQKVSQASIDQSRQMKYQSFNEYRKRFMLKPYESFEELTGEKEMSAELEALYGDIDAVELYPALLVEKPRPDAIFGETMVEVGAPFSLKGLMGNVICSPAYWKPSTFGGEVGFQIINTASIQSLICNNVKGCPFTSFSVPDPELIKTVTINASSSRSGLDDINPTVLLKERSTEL
In words: Inhibition of COX2 in human whole blood assessed as inhibition of 12-hydroxyheptadecatrienoic acid production at 10 uM by HPLC method. Type of experiment: tissue-based.

The subject of experiment [9] is L1210. In words: Cytotoxicity against mouse L1210 cells after 72 hrs by MTT assay. Type of experiment: functional, cell-based. Conditions: L1210, 72 h. A general note: Tetrazolium dyes change colour on reduction, which living cells bring about.
Experiment [10] deals with T4, Polyunsaturated fatty acid 5-lipoxygenase (Homo sapiens) (UniProt P09917).
T4 sequence (whole entry): T1 sequence (P09917 whole entry)
In kind it is tissue-based. As to conditions: Blood, 10 uM.

The test system of experiment [11] is PC-3. In words: cells. Conditions: Homo sapiens, PC-3, 72 h.
Description: Cytotoxicity against human PC3 cells after 72 hrs by MTT assay
Experiment [12] has as its target T2, Prostaglandin G/H synthase 1. In words: Inhibition of COX1 in human whole blood. Type of experiment: tissue-based.
In experiment [13] the target is T1, Polyunsaturated fatty acid 5-lipoxygenase. In words: Inhibition of 5-lipoxygenase in human whole blood. In kind it is tissue-based.
Experiment [14] has as its system MCF7. In words: cells. Conditions: Homo sapiens, MCF7, 72 h.
Description: Cytotoxicity against human MCF7 cells after 72 hrs by MTT assay
A further experiment is filed under the species Homo sapiens. In words: Selectivity ratio of IC50 for COX2 in human whole blood to IC50 for COX1 in human whole blood. Type of experiment: tissue-based.

Molecules are shown by their SMILES.

Usually IC50 stands for the concentration that inhibits the measured activity by half. Lower therefore signals inhibition by little substance. By inhibition is commonly meant the change of the read-out against control, counted positive when it falls. With `COc1ccc2c(c1)c1c(n2C(=O)c2ccccc2F)CCN(CCCOc2cc(F)cc(C3(OC)CCOCC3)c2)C1`, the half-maximal inhibitory concentration (IC50) in experiment [1] is more than 10 µM; in experiment [6] it was 39.3 µM. Moreover, the inhibition of growth at 10 µM with MCF7 [2] amounted to 21%; in the experiment with PC-3 [3], 15%; with L1210 [5], 45%. In addition, the inhibition in experiment [4] was 83.5%.

For the molecule `COc1ccc2c(c1)c1c(n2C(=O)c2ccc(Br)cc2)CCN(CCCOc2cc(F)cc(C3(OC)CCOCC3)c2)C1`, the IC50 turned out to be 62 µM in [1], 16.5 µM in experiment [7] and 47.4 µM in experiment [6]. Besides, the inhibition of growth at 10 µM was found to be 39% with MCF7 [2], 0% with PC-3 [3] and 42% in the experiment on L1210 [5].

On to `COC1(c2cc(F)cc(OCCCN3CCc4c(c5cc(S(C)(=O)=O)ccc5n4C(=O)c4ccccc4)C3)c2)CCOCC1`, for which the inhibition in [8] is 8.4%. The values for the inhibition of growth at 10 µM in the experiment on MCF7 [2], in the experiment with PC-3 [3] and in the experiment with L1210 [5] were 15%, 37% and 38%, respectively. In experiment [7], it took 24 µM to reach half-maximal inhibition (IC50).

As to `COC1(c2cc(F)cc(OCCCN3CCc4c(c5ccccc5n4C(=O)c4ccccc4)C3)c2)CCOCC1`, the half-maximal inhibitory concentration (IC50) in experiment [1] amounted to 206 µM; in [7] it was 18.2 µM; in [6] it was 92.9 µM. For the same molecule, the inhibition of growth at 10 µM in the experiment on MCF7 [2] was determined as 30%; with PC-3 [3], 6%; with L1210 [5], 24%.

Turning to `COc1ccc2c(c1)c1c(n2C(=O)c2ccccc2)CCNC1`, the inhibition of growth at 10 µM in the experiment with MCF7 [2] is 0%; with PC-3 [3] it was 0%; with L1210 [5], 32%. In experiment [7], this molecule gave an IC50 of 6 µM.

As for `CS(=O)(=O)c1ccc2c(c1)c1c(n2C(=O)c2ccccc2)CCNC1`, the inhibition of growth at 10 µM in the experiment on MCF7 [2] came to 0%; in the experiment on PC-3 [3] it was 7%; in the experiment on L1210 [5], 0%. This molecule yielded a concentration for half-maximal inhibition (IC50) in [7] of 24.4 µM.

In the case of `COc1ccc2c(c1)c1c(n2C(=O)c2ccc(S(=O)(=O)/N=C/N(C)C)cc2)CCN(CCCOc2cc(F)cc(C3(OC)CCOCC3)c2)C1`, the IC50 in the experiment on L1210 [9] is 6 µM; in [1], more than 10 µM. The molecule also gave an inhibition in experiment [10] of 81.4%. The inhibition of growth at 10 µM in the experiment with MCF7 [2] amounted to 21%; in the experiment on PC-3 [3], 42%.

Turning to `COc1ccc2c(c1)c1c(n2Cc2ccc(S(C)(=O)=O)cc2)CCN(CCCOc2cc(F)cc(C3(OC)CCOCC3)c2)C1`, the IC50 in the experiment on L1210 [9] was determined as 5 µM; in the experiment on PC-3 [11], 8 µM. In addition, in the experiment on MCF7 [2], the inhibition of growth at 10 µM turned out to be 27%.

On to `COc1ccc2c(c1)c1c(n2C(=O)c2cccc(F)c2)CCN(CCCOc2cc(F)cc(C3(OC)CCOCC3)c2)C1`, for which the concentration for half-maximal inhibition (IC50) in [1] amounted to 40.5 µM; in [7], 7.8 µM; in [6] it was 38 µM. Further, the inhibition of growth at 10 µM in the experiment on MCF7 [2] was determined as 8%; in the experiment with PC-3 [3] it was 44%; in the experiment with L1210 [5] it was 40%.

For `COC1(c2cc(F)cc(OCCCN3CCc4c(c5cc(S(C)(=O)=O)ccc5n4CCCOc4cc(F)cc(C5(OC)CCOCC5)c4)C3)c2)CCOCC1`, in the experiment on L1210 [9], the concentration for half-maximal inhibition (IC50) was determined as 3 µM. The inhibition of growth at 10 µM in the experiment with MCF7 [2] came out at 36%.

In the case of `COC1(c2cc(F)cc(OCCCN3CCc4c(c5cc(F)ccc5n4Cc4ccc(S(C)(=O)=O)cc4)C3)c2)CCOCC1`, the 50% inhibitory concentration (IC50) in the experiment on PC-3 [11] is 8 µM; in [1], 24.6 µM; in experiment [7], 180 µM; in experiment [6] it was 29.5 µM. The inhibition of growth at 10 µM with MCF7 [2] turned out to be 34%; in the experiment on L1210 [5] it was 38%.

With `COc1ccc2c(c1)c1c(n2C(=O)c2c(Cl)cc(Cl)cc2Cl)CCN(CCCOc2cc(F)cc(C3(OC)CCOCC3)c2)C1`, the values for the concentration for half-maximal inhibition (IC50) in experiment [1], in experiment [7] and in experiment [6] were 55 µM, 36.7 µM and 45.4 µM, respectively. Moreover, the values for the inhibition of growth at 10 µM in the experiment with MCF7 [2], in the experiment with PC-3 [3] and in the experiment with L1210 [5] were 36%, 0% and 11%, respectively.

In the case of `COC1(c2cc(F)cc(OCc3cc(-c4ccccc4)n(-c4ccc(S(C)(=O)=O)cc4)n3)c2)CCOCC1`, the figures for the concentration for half-maximal inhibition (IC50) in experiment [12] and in experiment [13] were more than 10 µM and 0.2 µM, respectively.

As to `COc1ccc2c(c1)c1c(n2C(=O)c2ccc(F)cc2)CCN(CCCOc2cc(F)cc(C3(OC)CCOCC3)c2)C1`, the concentration for half-maximal inhibition (IC50) in experiment [1] is 59.9 µM; in experiment [6], 58 µM. The results for the inhibition of growth at 10 µM with MCF7 [2], in the experiment with PC-3 [3] and with L1210 [5] were 37%, 0% and 44%, respectively. Moreover, the inhibition in [4] was 71.6%.

For the molecule `COc1ccc2c(c1)c1c(n2C(=O)c2ccc(Cl)cc2)CCN(CCCOc2cc(F)cc(C3(OC)CCOCC3)c2)C1`, the IC50 in the experiment with L1210 [9] was found to be 8 µM; in experiment [1], 119 µM; in the experiment with MCF7 [14], 8 µM; in experiment [7] it was 7.4 µM; in experiment [6] it was 59.3 µM. In addition, in the experiment with PC-3 [3], the inhibition of growth at 10 µM came to 9%.

`Cc1ccc(-c2cc(C(F)(F)F)nn2-c2ccc(S(N)(=O)=O)cc2)cc1` [CELECOXIB]: the results for the half-inhibitory concentration (IC50) in the experiment with L1210 [9] and in the experiment on MCF7 [14] were 44 µM and 50.2 µM, respectively.

For `COC(=O)c1cc2cc(S(C)(=O)=O)ccc2n1Cc1ccc(Cl)cc1`, the concentration for half-maximal inhibition (IC50) in experiment [12] was more than 10 µM. Besides, in the experiment filed under Homo sapiens, the Ratio IC50 was less than 0.05.

As for `COc1ccc2c(c1)c1c(n2C(=O)c2ccccc2)CCN(CCCOc2cc(F)cc(C3(OC)CCOCC3)c2)C1`, the IC50 stood at 108 µM in [1] and 66.4 µM in experiment [6]. In addition, the inhibition of growth at 10 µM in the experiment on MCF7 [2] is 18%; in the experiment on PC-3 [3], 20%; in the experiment on L1210 [5] it was 20%. Also, in [4], the inhibition amounted to 84.3%.

For the origin of these results see ChEMBL document CHEMBL1165918, “Synthesis and biological activity of N-aroyl-tetrahydro-gamma-carbolines” (Bioorg Med Chem, 2010).
